{
  "source": "patent US20060204442A1",
  "about": "“Magnetically targetable particles comprising magnetic components and biocompatible polymers for site-specific delivery of biologically active agents” (Bankruptcy Estate of Ferx, Inc., priority 2003, published 2006)",
  "origin": "cited, not measured here",
  "tested_on": "cell lines of the national Cancer Institute's Anticancer Drug Screen Panel",
  "settings": "Rixe et al., Biochem Pharmacol 52",
  "data": [
    {"smiles": "[NH2][Pt]([NH2])([Cl])[Cl]", "note": "[CDDP, cisplatin]", "values": [
      {"measurement": "IC50, published value", "value": 0.537, "unit": "µg/mL"}
    ]}
  ]
}
